This note sets out measurements from PubChem BioAssay AID330 (DTP/NCI, 2004).

Each structure is given as a SMILES string. Several values for one entry are separate records, joined by “and”; a condition that tells them apart may be missing. Equal entries are not always repeated. Inconclusive results and toxic doses are left out.

For this assay, the system named is P388 leukemia ip, CD2F1 mice, survival T/C. Briefly: NCI In Vivo Anticancer Drug Screen. Data for tumor model P388 Leukemia (intraperitoneal) in CD2F1 (CDF1) mice. To be noted: endpoint: median survival time, higher = longer survival. The procedure, abridged: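 Mice carrying the transplanted tumor received test compound or vehicle. Survival was recorded in each group, and the value is the treated-group measurement divided by that of the vehicle-treated control group.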

The mark [1] stands for this setting: dose: 60.0 mg/kg/injection, schedule: Q01DX005 (ip), vehicle: saline with Tween-80.
The mark [2] stands for this setting: dose: 120.0 mg/kg/injection, schedule: Q01DX005 (ip), vehicle: saline with Tween-80.
Where [3] appears, read: dose: 100.0 mg/kg/injection, schedule: Q04DX003 (ip), vehicle: saline.
Where [4] appears, read: dose: 200.0 mg/kg/injection, schedule: Q04DX003 (ip), vehicle: saline.
The mark [5] stands for this setting: dose: 50.0 mg/kg/injection, schedule: Q01DX009 (ip), vehicle: saline with Tween-80.
[6] abbreviates: dose: 100.0 mg/kg/injection, schedule: Q01DX009 (ip), vehicle: saline with Tween-80.
[7] abbreviates: dose: 200.0 mg/kg/injection, schedule: Q01DX009 (ip), vehicle: saline with Tween-80.
[8] abbreviates: dose: 25.0 mg/kg/injection, schedule: Q01DX005 (ip), vehicle: Klucel (hydroxypropylcellulose) (HPC).
Setting [9] is: dose: 50.0 mg/kg/injection, schedule: Q01DX005 (ip), vehicle: Klucel (hydroxypropylcellulose) (HPC).
Setting [10] is: dose: 100.0 mg/kg/injection, schedule: Q01DX005 (ip), vehicle: Klucel (hydroxypropylcellulose) (HPC).
[11] abbreviates: dose: 200.0 mg/kg/injection, schedule: Q01DX005 (ip), vehicle: Klucel (hydroxypropylcellulose) (HPC).
Setting [12] is: dose: 240.0 mg/kg/injection, schedule: Q01DX005 (ip), vehicle: saline with Tween-80.

As for `CCC(COC(=O)c1ccc(N(CC)CC)cc1)NC1CCCCC1` (stereo not given), the T/C runs as follows: under setting [1], 111 % of control; under setting [2], 90 % of control.
For the compound `CCCCN(C(=O)c1ccccc1)c1nc2ccccc2n1C`, the T/C under setting [3] was 95 % of control; the T/C under setting [4] was 98 % of control; the T/C (dose: 400.0 mg/kg/injection, schedule: Q04DX003 (ip), vehicle: saline) is 99 % of control.
On to `CNc1nc(-c2ccccc2)c(-c2ccccc2)[nH]1`, for which the T/C (dose: 6.25 mg/kg/injection, schedule: Q04DX002 (ip), vehicle: saline) is 105 % of control; the T/C (dose: 12.5 mg/kg/injection, schedule: Q04DX002 (ip), vehicle: saline) is 100 % of control; the T/C (dose: 25.0 mg/kg/injection, schedule: Q04DX002 (ip), vehicle: saline) is 97 % of control.
For `O=C(Nc1ccccc1)Nc1nccs1`, the T/C is 92 % of control under setting [5], 96 % of control under setting [6] and 93 % of control under setting [7].
Taken in the same sequence, the figures for `CCCC(=O)Nc1ccccc1` were 100 % of control, 100 % of control and 93 % of control.
Take `Cc1ccc(/C=C/c2ccc3ccccc3c2)cc1`: the T/C was 108 % of control (dose: 50.0 mg/kg/injection, schedule: Q01DX009 (ip), vehicle: other); 98 % of control (dose: 100.0 mg/kg/injection, schedule: Q01DX009 (ip), vehicle: other); 120 % of control (dose: 200.0 mg/kg/injection, schedule: Q01DX009 (ip), vehicle: other).
`Cc1ccc(S(=O)C2=CCCO2)cc1` (stereo not given): the T/C runs as follows: (dose: 12.5 mg/kg/injection, schedule: Q01DX005 (ip), vehicle: Klucel (hydroxypropylcellulose) (HPC)) 100 % of control; under setting [8], 102 % of control; under setting [9], 101 % of control and 108 % of control; under setting [10], 119 % of control; under setting [11], 118 % of control.
Turning to `C=C(C)C1CC=C(C)/C(=N/NC(=O)c2cccnc2)C1` (stereo not given), the T/C is 116 % of control under setting [9], 101 % of control under setting [10] and 109 % of control under setting [11].
`CCOC(=O)/C(=C(\C)N)n1[nH]c(=O)n(-c2ccccc2)c1=O`: the T/C was 98 % of control under setting [8]; 100 % of control and 103 % of control under setting [9]; 101 % of control and 96 % of control under setting [10]; 98 % of control and 103 % of control under setting [11].
In the case of `O=C(CCl)NCc1ccccc1`, the T/C runs as follows: under setting [3], 98 % of control; under setting [4], 100 % of control.
For `O=C(NCCCC(CCCNC(=O)c1ccccc1)(C(=O)O)C(=O)O)c1ccccc1`, the T/C under setting [9] is 106 % of control, the T/C under setting [10] is 109 % of control and the T/C under setting [11] is 104 % of control.
As for `O=C1/C(=C/c2ccccc2[N+](=O)[O-])COc2ccccc21`, the T/C reads like this: under setting [1], 97 % of control; under setting [2], 103 % of control; under setting [12], 97 % of control.
As to `Nc1nnc(N)n1-n1c(N)nnc1N`, the T/C (dose: 15.0 mg/kg/injection, schedule: Q01DX005 (ip), vehicle: saline) was 104 % of control; the T/C (dose: 30.0 mg/kg/injection, schedule: Q01DX005 (ip), vehicle: saline) was 99 % of control; the T/C (dose: 60.0 mg/kg/injection, schedule: Q01DX005 (ip), vehicle: saline) was 100 % of control and 104 % of control.
In the case of `O=C(O)/C=C/c1c(-c2ccccc2)sc2ccccc2c1=O`, the T/C was 93 % of control (dose: 100.0 mg/kg/injection, schedule: Q04DX002 (ip), vehicle: saline with Tween-80); 97 % of control (dose: 200.0 mg/kg/injection, schedule: Q04DX002 (ip), vehicle: saline with Tween-80); 97 % of control (dose: 400.0 mg/kg/injection, schedule: Q04DX002 (ip), vehicle: saline with Tween-80).
`CC1=CC(=C2C(=O)c3ccccc3C2=O)C=C(C)O1`: the T/C is, setting by setting: under setting [9], 101 % of control; (dose: 60.0 mg/kg/injection, schedule: Q01DX005 (ip), vehicle: Klucel (hydroxypropylcellulose) (HPC)) 95 % of control; under setting [10], 89 % of control; (dose: 120.0 mg/kg/injection, schedule: Q01DX005 (ip), vehicle: Klucel (hydroxypropylcellulose) (HPC)) 90 % of control; under setting [11], 88 % of control; (dose: 240.0 mg/kg/injection, schedule: Q01DX005 (ip), vehicle: Klucel (hydroxypropylcellulose) (HPC)) 87 % of control.
For the compound `O=C1C=CC(=O)C2C1CC=C1CCCCC12` (stereo not given), the T/C reads like this: (dose: 7.5 mg/kg/injection, schedule: Q01DX009 (ip), vehicle: saline with Tween-80) 106 % of control; (dose: 15.0 mg/kg/injection, schedule: Q01DX009 (ip), vehicle: saline with Tween-80) 109 % of control; (dose: 30.0 mg/kg/injection, schedule: Q01DX009 (ip), vehicle: saline with Tween-80) 103 % of control.
In the case of `COc1cccc(CSC(C(=O)O)c2ccccc2)c1` (stereo not given), the T/C reads like this: under setting [5], 107 % of control; under setting [6], 101 % of control; under setting [7], 117 % of control.
As for `C[C@]12CC[C@H](O)C[C@@]1(O)CC[C@@H]1[C@@H]2CC[C@]2(C)[C@@H](c3ccc(=O)oc3)C[C@H]3O[C@]132`, the T/C is, setting by setting: (dose: 1.25 mg/kg/injection, schedule: Q01DX005 (ip), vehicle: saline + alcohol) 107 % of control; (dose: 2.5 mg/kg/injection, schedule: Q01DX005 (ip), vehicle: saline + alcohol) 104 % of control; (dose: 5.0 mg/kg/injection, schedule: Q01DX005 (ip), vehicle: saline + alcohol) 116 % of control; (dose: 10.0 mg/kg/injection, schedule: Q01DX005 (ip), vehicle: saline + alcohol) 94 % of control.
With `N=C(N)c1ccc2[nH]c(/C=C/c3cc4cc(C(=N)N)ccc4o3)cc2c1`, the T/C runs as follows: (dose: 25.0 mg/kg/injection, schedule: Q04DX003 (ip), vehicle: suspension in saline) 163 % of control; (dose: 50.0 mg/kg/injection, schedule: Q04DX003 (ip), vehicle: suspension in saline) 160 % of control; (dose: 100.0 mg/kg/injection, schedule: Q04DX003 (ip), vehicle: suspension in saline) 163 % of control.
As to `C/C=C/C=C1\C=Cc2c(C(=O)OC)coc(=O)c21`, the T/C is, setting by setting: (dose: 19.5 mg/kg/injection, schedule: Q01DX005 (ip), vehicle: Klucel (hydroxypropylcellulose) (HPC)) 107 % of control; (dose: 39.0 mg/kg/injection, schedule: Q01DX005 (ip), vehicle: Klucel (hydroxypropylcellulose) (HPC)) 110 % of control; (dose: 78.0 mg/kg/injection, schedule: Q01DX005 (ip), vehicle: Klucel (hydroxypropylcellulose) (HPC)) 108 % of control.
Turning to `COc1ccc(C(Nc2ncccn2)c2cc(C(C)(C)C)cc(C(C)(C)C)c2O)cc1` (stereo not given), the T/C (dose: 50.0 mg/kg/injection, schedule: Q01DX005 (ip), vehicle: distilled water + alcohol) was 101 % of control; the T/C (dose: 100.0 mg/kg/injection, schedule: Q01DX005 (ip), vehicle: distilled water + alcohol) was 101 % of control; the T/C (dose: 200.0 mg/kg/injection, schedule: Q01DX005 (ip), vehicle: distilled water + alcohol) is 97 % of control.
As to `CC(C)/C=C1\C(=O)NCC(=O)N1Cc1ccccc1`, the T/C (dose: 75.0 mg/kg/injection, schedule: Q01DX001 (ip), vehicle: Klucel (hydroxypropylcellulose) (HPC)) is 103 % of control; the T/C (dose: 150.0 mg/kg/injection, schedule: Q01DX001 (ip), vehicle: Klucel (hydroxypropylcellulose) (HPC)) was 100 % of control; the T/C (dose: 300.0 mg/kg/injection, schedule: Q01DX001 (ip), vehicle: Klucel (hydroxypropylcellulose) (HPC)) was 94 % of control.
Consider `C(=N\Nc1nc2ccccc2s1)/c1cccs1`, for which the T/C is, setting by setting: (dose: 50.0 mg/kg/injection, schedule: Q01DX009 (ip), vehicle: saline) 100 % of control; (dose: 100.0 mg/kg/injection, schedule: Q01DX009 (ip), vehicle: saline) 87 % of control; (dose: 200.0 mg/kg/injection, schedule: Q01DX009 (ip), vehicle: saline) 106 % of control.
On to `CC(=O)NC(C)c1ccc2ccccc2c1` (stereo not given), for which the T/C reads like this: under setting [1], 97 % of control; under setting [2], 96 % of control; under setting [12], 97 % of control.
Turning to `COc1ccc(C(N)Cc2ccccc2)cc1` (stereo not given), the T/C reads like this: under setting [9], 92 % of control; under setting [10], 100 % of control; under setting [11], 102 % of control.
